In PubChem BioAssay (NCI):
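Step 1: Grow cells in 96-well plates. Step 2: Expose to compound for 48 hours at 5 concentrations. Step 3: Interpolate endpoints linearly; if unreached, use highest concentration. TGI denotes the concentration required for complete inhibition of growth.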

How the values were obtained:
Assay in all cases: NCI anticancer screen, dose series, 48 h
BT-549 breast = tested on: BT-549 breast
CAKI-1 renal = tested on: CAKI-1 renal
DU-145 prostate = tested on: DU-145 prostate
HOP-92 NSCLC = tested on: HOP-92 NSCLC
K-562 leukemia = tested on: K-562 leukemia
MOLT-4 leukemia = tested on: MOLT-4 leukemia
NCI-H23 lung = tested on: NCI-H23 lung
OVCAR-3 ovarian = tested on: OVCAR-3 ovarian
OVCAR-5 ovarian = tested on: OVCAR-5 ovarian
SNB-19 CNS = tested on: SNB-19 CNS
SR leukemia = tested on: SR leukemia

| Structure (SMILES) | TGI (BT-549 breast) [µM] | TGI (CAKI-1 renal) [µM] | TGI (DU-145 prostate) [µM] | TGI (HOP-92 NSCLC) [µM] | TGI (K-562 leukemia) [µM] | TGI (MOLT-4 leukemia) [µM] | TGI (NCI-H23 lung) [µM] | TGI (OVCAR-3 ovarian) [µM] | TGI (OVCAR-5 ovarian) [µM] | TGI (SNB-19 CNS) [µM] | TGI (SR leukemia) [µM] |
| --- | --- | --- | --- | --- | --- | --- | --- | --- | --- | --- | --- |
| COc1cc2c(cc1O)CC[C@@H]1C2CC[C@@]2(C)C1CC[C@@H]2O (stereo not given in full) | > 100 | > 97.4 | > 100 | > 97.9 | 26.1 | 32.1 | 51.7 | 7.17 | > 100 | > 100 | 5.44 |
| C/C(=C\c1ccccc1)C(=O)NCc1ccc(C(=O)NCCc2c[nH]c3ccccc23)cc1 | > 100 | > 100 | > 100 | > 100 | > 100 | > 100 | > 100 | > 100 | > 100 | > 100 | > 100 |
| O=C(/C=C/c1ccccc1)CCc1c(O)c2ccccc2oc1=O | > 100 | > 100 | > 100 | > 100 | > 100 | > 100 | > 100 | > 100 | > 100 | > 100 |  |
| CSC1NNC2(C(=O)N1)c1ccccc1-c1ccccc12 (stereo not given) | > 10 | > 10 | > 10 | > 10 | > 10 | > 10 | > 10 |  |  | > 10 | > 10 |
| CCOC(=O)c1cc(-c2ccn(C(C)=O)c2)c(-c2cc(C)co2)[nH]1 | > 100 | > 100 | > 100 |  | > 100 | > 100 | > 100 | > 100 | > 100 | > 100 | > 100 |
| COC(=O)C1=C(C)NC2(C)OC(C)(O)C(C(C)=O)C12C(C)=O (stereo not given) | > 100 | > 100 | > 100 | 89.2 | > 100 | > 100 | > 100 | > 100 | > 100 | > 100 |  |
| CC1(C)O[C@@H](CP(c2cccc3ccccc23)c2cccc3ccccc23)[C@H](CP(c2cccc3ccccc23)c2cccc3ccccc23)O1 | > 100 | > 100 | > 100 |  | > 100 | > 100 | > 100 | > 100 | > 100 | > 100 | > 100 |
| O=c1c(-c2ccc(O)cc2)coc2cc(O)cc(O)c12 | > 100 |  | > 100 | > 100 | > 100 | > 100 | > 100 |  | > 100 | > 100 | > 100 |
